Test results taken from patent US20210315893A1 (Galapagos NV, priority 2017, published 2021).
Read-outs that look alike come from different tables or passages of the source.

Columns and labels:
[1] = target: T1, human GPCR sphingosine 1-phosphate receptor 2 (Homo sapiens, UniProt O95136); assay: S1PR2 antagonist Ca2+ flux assay; format: cell-based; settings: antagonist mode, CHO-S1PR2 cells, S1P at EC80, Ca2+ fluorescence; read-out: S1P2 EC50 (nM), S1P2 antagonist EC50
T1 construct: host or cells: CHO
T1 sequence (O95136 whole entry): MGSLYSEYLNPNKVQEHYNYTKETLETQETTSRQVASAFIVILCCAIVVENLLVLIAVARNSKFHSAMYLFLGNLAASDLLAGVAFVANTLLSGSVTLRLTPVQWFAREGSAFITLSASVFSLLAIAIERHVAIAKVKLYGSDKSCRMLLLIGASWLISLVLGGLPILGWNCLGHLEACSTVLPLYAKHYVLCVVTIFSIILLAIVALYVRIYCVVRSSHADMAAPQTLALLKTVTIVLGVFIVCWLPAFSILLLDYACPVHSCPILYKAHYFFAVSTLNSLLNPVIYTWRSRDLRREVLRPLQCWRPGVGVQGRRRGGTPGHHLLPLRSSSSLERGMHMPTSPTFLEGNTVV
How it was run: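 CHO cells stably expressing human S1PR2, serum-starved 1 h, Fluo8-loaded; compound-evoked Ca2+ fluorescence read 3 min (agonist mode), then after 15 min S1P at EC80 added and read 3 min (antagonist mode). Max/baseline fluorescence ratios normalised to vehicle and S1P EC100 or EC50 controls; EC50 derived.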

[2] = target: T2, human GPCR sphingosine 1-phosphate receptor 1 (Homo sapiens, UniProt P21453); assay: S1PR1 selectivity Ca2+ flux assay (antagonist readout); format: cell-based
T2 construct: host or cells: CHO
T2 sequence (P21453 whole entry): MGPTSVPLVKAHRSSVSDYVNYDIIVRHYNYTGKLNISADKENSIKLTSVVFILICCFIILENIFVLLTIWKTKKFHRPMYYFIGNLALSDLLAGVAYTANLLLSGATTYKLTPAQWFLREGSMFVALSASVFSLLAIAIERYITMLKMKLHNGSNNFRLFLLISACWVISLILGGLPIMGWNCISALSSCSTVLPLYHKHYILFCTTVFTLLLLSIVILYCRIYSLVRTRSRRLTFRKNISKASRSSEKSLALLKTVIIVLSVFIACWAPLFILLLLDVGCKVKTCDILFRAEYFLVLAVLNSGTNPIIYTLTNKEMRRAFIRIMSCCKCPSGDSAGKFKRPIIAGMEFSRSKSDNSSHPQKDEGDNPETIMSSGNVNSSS
Description: (§1) 50 μL of Chinese hamster ovary (CHO) cells stably overexpressing human S1PR1 or S1PR5 are seeded in 384 well sterile microplates (7,500 cells/well or 10,000 cells/well respectively) and are incubated overnight at 37° C. under 5% CO2. Cells are subsequently washed twice with 25 μL/well of starvation medium (F-12 Ham's medium containing 0.1% fatty acid free bovine serum albumin (FAF BSA)). After one h starvation at 37° C., 5% CO2, cells are loaded with 25 μL of Fluo 8 dye diluted in Hank's balanced salt solution (HBSS) with 20 mM Hepes complemented with 5 mM of probenecid following the recommendations of the manufacturer (one h at 37° C., 5% CO2). Dilution series of compounds are prepared in HBSS buffer with 20 mM Hepes and 0.1% BSA (FAF). 10 μL of diluted compound is added to the cells using the FDSS/pCELL and intracellular calcium changes are measured immediately by recording fluorescence during 3 min (agonist readout). The ratio of maximal signal over background before compound injection is used to determine compound response.
After an incubation of 15 min at 37° C., following the agonist readout, the plates are transferred to the FDSS/pCELL reader. […] The ratio of maximal signal over background before S1P injection was used to determine the inhibitory effect ofthe compound.
(§2) Raw data obtained in each experiment (ratio of maximal signal over background for calcium mobilization assays) were normalized in percentage of activation (agonist mode) or inhibition (antagonist mode) using positive and negative experiment controls. Each individual plate quality was assessed by evaluation of Z′ factor calculated with raw data using the following equation
(§3) Y=bottom+(top−bottom)/(1+(10^(Log IC50−X)*Hillslope)) where X is the logarithm of the concentration of the compound

[3] = target: T3, human GPCR sphingosine 1-phosphate receptor 5 (Homo sapiens, UniProt Q9H228); assay: S1PR5 selectivity Ca2+ flux assay (antagonist readout); format: cell-based; settings: CHO cells overexpressing human S1PR5 and Gq, agonist at EC80 (20 nM), read-out: S1P5 EC50 (nM), S1P5 antagonist EC50
T3 construct: host or cells: CHO
T3 sequence (Q9H228 whole entry): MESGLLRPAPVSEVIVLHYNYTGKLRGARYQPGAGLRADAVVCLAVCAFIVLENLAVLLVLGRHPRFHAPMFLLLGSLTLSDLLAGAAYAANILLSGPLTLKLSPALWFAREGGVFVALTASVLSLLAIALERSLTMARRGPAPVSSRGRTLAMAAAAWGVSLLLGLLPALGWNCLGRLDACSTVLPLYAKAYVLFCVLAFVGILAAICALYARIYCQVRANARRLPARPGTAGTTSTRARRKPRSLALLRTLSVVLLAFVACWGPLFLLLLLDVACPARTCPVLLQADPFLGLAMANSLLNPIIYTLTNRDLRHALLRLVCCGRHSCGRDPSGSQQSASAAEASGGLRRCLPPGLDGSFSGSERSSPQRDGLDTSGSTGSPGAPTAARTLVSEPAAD
From the text: To evaluate the selectivity of the compounds for S1PR2 over S1PR1 and S1PR5, asimilar assay set upas described above for theS1PR2 calcium flux assays waspeformed: CHO cells stably overexpressing human GPCR sphingosine 1-phosphate receptor 1 and Gq protein (Euroscreen, FAST-0197A) or overexpressing human GPCR sphingosine 1-phosphate receptorS5 and Gq protein were used (Perkin Elmer, ES-593-A). In case of the S1PR5 assay triggering was done with an SPR5 specific agonist instead of with S1P (Hobson et al., 2015).
as §1
After an incubation of 15 min at 37° C., following the agonist readout, the plates are transferred to the FDSS/pCELL reader. Cells are stimulated with 10 μL of EC80 concentration of S1P (6 nM for S1P1 and 20 nM for S1P5) and intracellular calcium changes are measured immediately by recording fluorescence during three min (antagonist readout). The ratio of maximal signal over background before S1P injection was used to determine the inhibitory effect ofthe compound.
as §2, §3

[4] = target: T4, S1PR2 (Homo sapiens, UniProt O95136); assay: S1PR2 binding assay (competition with radioactively labeled S1P, SpA); settings: membranes from stable cell line over expressing S1PR2, SpA beads; read-out: S1P2 EC50 (nM), S1PR2 binding EC50
T4 construct: expressed in transfected cells
T4 sequence (O95136 whole entry): as the sequence (O95136 whole entry) above
How it was run: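 Competition with [3H]S1P for membranes from a stable S1PR2-overexpressing cell line, 20 μg/well, captured on PVT-WGA SPA beads, in 20 mM Tris pH 7.5, 10 mM MgCl2, 100 mM NaCl, 0.4% fatty-acid-free BSA, 1 mM Na3VO4. 2 h at room temperature, then centrifugation and scintillation counting.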

[5] = system: HFL-1 cells; assay: IL8 assay in the presence of Human Serum Albumin; settings: HFL1, read-out: HSA IL8 EC50
[6] = system: HFL-1 cells; assay: IL-8 production assay (S1P induced IL-8); format: cell-based; settings: Homo sapiens, HFL1; S1P (1 μM) induced IL-8 in HFL-1 cells, starvation medium without HSA; read-out: IL8 EC50
How it was run: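 HFL-1 human fetal lung fibroblasts were starved in F12K/1% FBS, then given compound for 1 h (10-point, 1/3 dilution, 30 μM top, 0.3% DMSO final). S1P was added at 1 μM final for 16–24 h at 37 °C, and secreted IL-8 in supernatant quantified by ELISA.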

[7] = antagonist readout, CHO cells overexpressing human S1PR1 and Gq, S1P at EC80 (6 nM), read-out: S1P1 EC50 (nM), S1P1 antagonist EC50

SMILES: CC(C(=O)O)n1nc(Cn2cc3cc(OCC(F)F)c(Cl)cc3n2)c2ccccc2c1=O (centres unmarked) [Compound 76]
- EC50 [1]: 161 nM
- EC50 [2]: ≥ 19800 nM
- EC50 [3]: 19800 nM
- EC50 [4]: 317 nM
- EC50 [5]: 3.43 µM

SMILES: O=C(O)Cn1nc(Cc2cn3cc(OCC4CC4)c(Cl)cc3n2)c2ccccc2c1=O [Compound 82, 2-[4-[[7-chloro-6-(cyclopropylmethoxy)imidazo[1,2-a]pyridin-2-yl]methyl]-1-oxo-phthalazin-2-yl]acetic acid]
- EC50 [2, 7]: ≥ 19800 nM
- EC50 [3]: 4380 nM
- EC50 [6]: 0.00996 µM
- EC50 [5]: 0.391 µM

SMILES: CC(C(=O)O)n1nc(Cc2cn3cc(OCC4CC4)c(Cl)cc3n2)c2ccccc2c1=O (centres unmarked) [Compound 83, 2-[4-[[7-chloro-6-(cyclopropylmethoxy)imidazo[1,2-a]pyridin-2-yl]methyl]-1-oxo-phthalazin-2-yl]propanoic acid]
- EC50 [1]: 12.7 nM
- EC50 [2]: ≥ 19800 nM
- EC50 [3]: 19800 nM
- EC50 [4]: 53.2 nM
- EC50 [5]: 0.125 µM

SMILES: CC(C)(C(=O)O)c1nn(Cc2cn3cc(OCC4CC4)c(Cl)cc3n2)c2ccccc2c1=O [Compound 88, 2-[1-[[7-chloro-6-(cyclopropylmethoxy)imidazo[1,2-a]pyridin-2-yl]methyl]-4-oxo-cinnolin-3-yl]-2-methyl-propanoic acid]
- EC50 [2, 7]: ≥ 19800 nM
- EC50 [3]: 19800 nM
- EC50 [6]: 0.0298 µM
- EC50 [5]: 0.41 µM

SMILES: O=C(O)Cc1nn(Cc2cn3cc(OCC4CC4)c(Cl)cc3n2)c2ccccc2c1=O [Compound 89, 2-[1-[[7-chloro-6-(cyclopropylmethoxy)imidazo[1,2-a]pyridin-2-yl]methyl]-4-oxo-cinnolin-3-yl]acetic acid]
- EC50 [2, 7]: ≥ 19800 nM
- EC50 [3]: 6610 nM
- EC50 [6]: 0.0057 µM
- EC50 [5]: 0.0645 µM

SMILES: COC(C(=O)O)c1nn(Cc2cn3cc(OCC4CC4)c(Cl)cc3n2)c2ccccc2c1=O (centres unmarked) [Compound 94, 2-[1-[[7-chloro-6-(cyclopropylmethoxy)imidazo[1,2-a]pyridin-2-yl]methyl]-4-oxo-cinnolin-3-yl]-2-methoxy-acetic acid]
- EC50 [2, 7]: ≥ 19800 nM
- EC50 [3]: 19800 nM
- EC50 [6]: 0.105 µM
- EC50 [5]: 0.267 µM

SMILES: O=C(O)C1(c2nn(Cc3cn4cc(OCC5CC5)c(Cl)cc4n3)c3ccccc3c2=O)CC1 [Compound 96, 1-[1-[[7-chloro-6-(cyclopropylmethoxy)imidazo[1,2-a]pyridin-2-yl]methyl]-4-oxo-cinnolin-3-yl]cyclopropanecarboxylic acid]
- EC50 [2, 7]: ≥ 19800 nM
- EC50 [3]: 19800 nM
- EC50 [6]: 0.03 µM
- EC50 [5]: 0.425 µM

SMILES: CCC(C(=O)O)c1nn(Cc2cn3cc(OCC4CC4)c(Cl)cc3n2)c2ccccc2c1=O (centres unmarked) [Compound 98, 2-[1-[[7-chloro-6-(cyclopropylmethoxy)imidazo[1,2-a]pyridin-2-yl]methyl]-4-oxo-cinnolin-3-yl]butanoic acid]
- EC50 [2, 7]: ≥ 19800 nM
- EC50 [3]: 19800 nM
- EC50 [6]: 0.00569 µM
- EC50 [5]: 0.0269 µM

SMILES: Cc1cccc2c1c(=O)c(CC(=O)O)nn2Cc1cn2cc(OCC3CC3)c(Cl)cc2n1 [Compound 102, 2-[1-[[7-chloro-6-(cyclopropylmethoxy)imidazo[1,2-a]pyridin-2-yl]methyl]-5-methyl-4-oxo-cinnolin-3-yl]acetic acid]
- EC50 [1]: 3.02 nM
- EC50 [2, 7]: ≥ 19800 nM
- EC50 [3]: 19800 nM
- EC50 [4]: 30 nM
- EC50 [5]: 0.018 µM

SMILES: O=C(O)Cn1nc(Cn2cc3cc(OCC4CC4)c(Cl)cc3n2)c2ccccc2c1=O [Compound 114, 2-[4-[[6-chloro-5-(cyclopropylmethoxy)indazol-2-yl]methyl]-1-oxo-phthalazin-2-yl]acetic acid]
- EC50 [2, 7]: ≥ 19900 nM
- EC50 [3]: 627 nM
- EC50 [6]: 0.0324 µM
- EC50 [5]: 1.67 µM

SMILES: O=C(O)Cn1nc(Cc2nc3cc(Cl)c(OCC(F)F)cc3[nH]2)c2ccccc2c1=O [Compound 118, 2-[4-[[5-chloro-6-(2,2-difluoroethoxy)-1H-benzimidazol-2-yl]methyl]-1-oxo-phthalazin-2-yl]acetic acid]
- EC50 [2, 7]: ≥ 19800 nM
- EC50 [3]: 19800 nM
- EC50 [6]: 0.0255 µM
- EC50 [5]: 0.0952 µM

SMILES: O=C(O)Cn1nc(Cc2nc3cc(OCC4CC4)c(C(F)(F)F)cc3[nH]2)c2ccccc2c1=O [Compound 123, 2-[4-[[5-(cyclopropylmethoxy)-6-(trifluoromethyl)-1H-benzimidazol-2-yl]methyl]-1-oxo-phthalazin-2-yl]acetic acid]
- EC50 [2, 7]: 1840 nM
- EC50 [3]: 19800 nM
- EC50 [6]: 0.00176 µM
- EC50 [5]: 0.0259 µM

SMILES: O=C(O)Cn1nc(Cc2nc3cc(OCC4CC4)c(F)cc3[nH]2)c2ccccc2c1=O [Compound 124, 2-[4-[[5-(cyclopropylmethoxy)-6-fluoro-1H-benzimidazol-2-yl]methyl]-1-oxo-phthalazin-2-yl]acetic acid]
- EC50 [2, 7]: 13200 nM
- EC50 [3]: 19800 nM
- EC50 [6]: 0.0666 µM
- EC50 [5]: 0.446 µM

SMILES: CC(C(=O)O)c1nn(Cc2cn3cc(OCC4CC4)c(Cl)cc3n2)c2ccccc2c1=O (centres unmarked) [compound 4, 2-[1-[[7-chloro-6-(cyclopropyl-methoxy)imidazo-[1,2-a]pyridin-2-yl]methyl]-4-oxo-cinnolin-3-yl]propanoic acid]
- EC50 [2, 7]: ≥ 19800 nM
- EC50 [3]: 19800 nM
- EC50 [6]: 0.00164 µM
- EC50 [5]: 0.0192 µM

SMILES: O=C(O)c1nn(Cc2nc3cc(OCC4CC4)c(Cl)cc3[nH]2)c2ccccc2c1=O [compound 5, 1-[[6-chloro-5-(cyclopropyl-methoxy)-1H-benzimidazol-2-yl]methyl]-4-oxo-cinnoline-3-carboxylic acid]
- EC50 [1]: 3.48 nM
- EC50 [3]: 1620 nM
- EC50 [4]: 22 nM
- EC50 [6]: 0.00152 µM
- EC50 [5]: 0.0175 µM

SMILES: C[C@H](C(=O)O)n1nc(Cn2cc3cc(OCC4CC4)c(Cl)cc3n2)c2ccccc2c1=O [compound 17, ((2R)-2-[4-[[6-chloro-5-(cyclo-propylmethoxy)-indazol-2-yl]-methyl]-1-oxo-phthalazin-2-yl]-propanoic acid)]
- EC50 [2, 7]: 8810 nM
- EC50 [3]: 19800 nM
- EC50 [6]: 0.00302 µM
- EC50 [5]: 0.211 µM

SMILES: C[C@@H](C(=O)O)n1nc(Cn2cc3cc(OCC4CC4)c(Cl)cc3n2)c2ccccc2c1=O [compound 18, (2S)-2-[4-[[6-chloro-5-(cyclo-propylmethoxy)-indazol-2-yl]-methyl]-1-oxo-phthalazin-2-yl]propanoic acid]
- EC50 [2, 7]: ≥ 19800 nM
- EC50 [3]: 19800 nM
- EC50 [6]: 0.21 µM
- EC50 [5]: 22.5 µM

SMILES: CN(C)CC(C(=O)O)c1nn(Cc2nc3cc(C#N)c(OCC4CC4)cc3[nH]2)c2ccccc2c1=O (centres unmarked) [compound 21, (2-[1-[[5-cyano-6-(cyclopropyl-methoxy)-1H-benzimidazol-2-yl]methyl]-4-oxocinnolin-3-yl]-3-(dimethyl-amino)propanoic acid)]
- EC50 [1]: 5.4 nM
- EC50 [3]: 19800 nM
- EC50 [4]: 30.4 nM
- EC50 [6]: 0.00252 µM
- EC50 [5]: 0.0521 µM
